Data published in the NIST ThermoML archive (doi:10.1016/j.tca.2004.11.022).

Key:
[1] = xn = mol fraction of the nth substance listed; conditions: 101 kPa, Liquid; for mass density: Vibrating tube method; for speed of sound: Pulse-echo method
[2] = molar heat capacity at constant pressure; xn = mol fraction of the nth substance listed; conditions: 101 kPa, Liquid, Small sample (50 mg) DSC

COC(=O)OC [dimethyl carbonate] + CCCCCCCC
Conditions	mass density [kg/m3]	molar heat capacity at constant pressure [J/K/mol]	speed of sound [m/s]
[1], 288.15 K, x1 = 0.05047	715.14	–	–
[1], 288.15 K, x1 = 0.1072	725.36	–	–
[1], 288.15 K, x1 = 0.1969	743.56	–	–
[1], 288.15 K, x1 = 0.2958	766.42	–	–
[1], 288.15 K, x1 = 0.4018	794.6	–	–
[1], 288.15 K, x1 = 0.5011	825	–	–
[1], 288.15 K, x1 = 0.5974	858.8	–	–
[1], 288.15 K, x1 = 0.699	900.18	–	–
[1], 288.15 K, x1 = 0.7982	947.83	–	–
[1], 288.15 K, x1 = 0.8992	1005.83	–	–
[1], 288.15 K, x1 = 0.949	1038.95	–	–
[1], 293.15 K, x1 = 0.05047	710.88	–	–
[1], 293.15 K, x1 = 0.1072	721.13	–	–
[1], 293.15 K, x1 = 0.1969	739.1	–	–
[1], 293.15 K, x1 = 0.2958	761.79	–	–
[1], 293.15 K, x1 = 0.4018	789.7	–	–
[1], 293.15 K, x1 = 0.5011	819.9	–	–
[1], 293.15 K, x1 = 0.5974	853.5	–	–
[1], 293.15 K, x1 = 0.699	894.47	–	–
[1], 293.15 K, x1 = 0.7982	941.92	–	–
[1], 293.15 K, x1 = 0.8992	999.55	–	–
[1], 293.15 K, x1 = 0.949	1032.56	–	–
[1], 298.15 K, x1 = 0.05047	706.69	–	1165
[1], 298.15 K, x1 = 0.1072	716.89	–	1158.1
[1], 298.15 K, x1 = 0.1969	734.68	–	1148.9
[1], 298.15 K, x1 = 0.2958	757.15	–	1141.5
[1], 298.15 K, x1 = 0.4018	784.9	–	1136.1
[1], 298.15 K, x1 = 0.5011	814.8	–	1133.7
[1], 298.15 K, x1 = 0.5974	848.1	–	1134.2
[1], 298.15 K, x1 = 0.699	888.77	–	1138.7
[1], 298.15 K, x1 = 0.7982	935.98	–	1149.1
[1], 298.15 K, x1 = 0.8992	993.3	–	1167.7
[1], 298.15 K, x1 = 0.949	1026.12	–	1180.9
[1], 308.15 K, x1 = 0.05047	698.46	–	–
[1], 308.15 K, x1 = 0.1072	708.37	–	–
[1], 308.15 K, x1 = 0.1969	725.85	–	–
[1], 308.15 K, x1 = 0.2958	747.86	–	–
[1], 308.15 K, x1 = 0.4018	775.1	–	–
[1], 308.15 K, x1 = 0.5011	804.5	–	–
[1], 308.15 K, x1 = 0.5974	837.3	–	–
[1], 308.15 K, x1 = 0.699	877.52	–	–
[1], 308.15 K, x1 = 0.7982	924.07	–	–
[1], 308.15 K, x1 = 0.8992	980.86	–	–
[1], 308.15 K, x1 = 0.949	1013.24	–	–
[2], 288.15 K, x1 = 0.05306	–	245.12	–
[2], 288.15 K, x1 = 0.1016	–	240.86	–
[2], 288.15 K, x1 = 0.2012	–	232.99	–
[2], 288.15 K, x1 = 0.2999	–	225.81	–
[2], 288.15 K, x1 = 0.4012	–	219.02	–
[2], 288.15 K, x1 = 0.4549	–	215.27	–
[2], 288.15 K, x1 = 0.5037	–	211.61	–
[2], 288.15 K, x1 = 0.5561	–	207.58	–
[2], 288.15 K, x1 = 0.6482	–	199.24	–
[2], 288.15 K, x1 = 0.7075	–	192.93	–
[2], 288.15 K, x1 = 0.7982	–	182.94	–
[2], 288.15 K, x1 = 0.8484	–	177.49	–
[2], 288.15 K, x1 = 0.9493	–	167.98	–
[2], 298.15 K, x1 = 0.05306	–	248.71	–
[2], 298.15 K, x1 = 0.1016	–	244.21	–
[2], 298.15 K, x1 = 0.1496	–	240.18	–
[2], 298.15 K, x1 = 0.2012	–	235.89	–
[2], 298.15 K, x1 = 0.2999	–	228.26	–
[2], 298.15 K, x1 = 0.4012	–	220.47	–
[2], 298.15 K, x1 = 0.4549	–	216.32	–
[2], 298.15 K, x1 = 0.5037	–	212.23	–
[2], 298.15 K, x1 = 0.5561	–	207.88	–
[2], 298.15 K, x1 = 0.6482	–	199.37	–
[2], 298.15 K, x1 = 0.7982	–	183.94	–
[2], 298.15 K, x1 = 0.8484	–	178.74	–
[2], 298.15 K, x1 = 0.9493	–	169.06	–
[2], 308.15 K, x1 = 0.05306	–	252.62	–
[2], 308.15 K, x1 = 0.1016	–	248.11	–
[2], 308.15 K, x1 = 0.1496	–	243.91	–
[2], 308.15 K, x1 = 0.2012	–	239.35	–
[2], 308.15 K, x1 = 0.2999	–	231.22	–
[2], 308.15 K, x1 = 0.4012	–	222.77	–
[2], 308.15 K, x1 = 0.4549	–	218.33	–
[2], 308.15 K, x1 = 0.5037	–	213.92	–
[2], 308.15 K, x1 = 0.5561	–	209.21	–
[2], 308.15 K, x1 = 0.5998	–	205.31	–
[2], 308.15 K, x1 = 0.6482	–	200.7	–
[2], 308.15 K, x1 = 0.7982	–	185.39	–
[2], 308.15 K, x1 = 0.8484	–	180.34	–
[2], 308.15 K, x1 = 0.8969	–	175.52	–
[2], 308.15 K, x1 = 0.9493	–	170.5	–

CCCCCCCCC [nonane] + COC(=O)OC
Conditions	mass density [kg/m3]	molar heat capacity at constant pressure [J/K/mol]	speed of sound [m/s]
[1], 288.15 K, x2 = 0.05335	729.39	–	–
[1], 288.15 K, x2 = 0.1009	736.94	–	–
[1], 288.15 K, x2 = 0.1998	754.47	–	–
[1], 288.15 K, x2 = 0.2963	774.22	–	–
[1], 288.15 K, x2 = 0.3965	798.13	–	–
[1], 288.15 K, x2 = 0.4978	826.3	–	–
[1], 288.15 K, x2 = 0.5983	859.19	–	–
[1], 288.15 K, x2 = 0.6976	897.72	–	–
[1], 288.15 K, x2 = 0.7982	944.58	–	–
[1], 288.15 K, x2 = 0.8985	1002.3	–	–
[1], 293.15 K, x2 = 0.05335	725.45	–	–
[1], 293.15 K, x2 = 0.1009	732.86	–	–
[1], 293.15 K, x2 = 0.1998	750.26	–	–
[1], 293.15 K, x2 = 0.2963	769.82	–	–
[1], 293.15 K, x2 = 0.3965	793.41	–	–
[1], 293.15 K, x2 = 0.4978	821.39	–	–
[1], 293.15 K, x2 = 0.5983	853.92	–	–
[1], 293.15 K, x2 = 0.6976	892.23	–	–
[1], 293.15 K, x2 = 0.7982	938.72	–	–
[1], 293.15 K, x2 = 0.8985	996.2	–	–
[1], 298.15 K, x2 = 0.05335	721.48	–	1198.5
[1], 298.15 K, x2 = 0.1009	728.79	–	1191.8
[1], 298.15 K, x2 = 0.1998	746.03	–	1180
[1], 298.15 K, x2 = 0.2963	765.4	–	1170.5
[1], 298.15 K, x2 = 0.3965	788.73	–	1162.4
[1], 298.15 K, x2 = 0.4978	816.45	–	1156.8
[1], 298.15 K, x2 = 0.5983	848.67	–	1153.4
[1], 298.15 K, x2 = 0.6976	886.73	–	1153.5
[1], 298.15 K, x2 = 0.7982	932.9	–	1158.2
[1], 298.15 K, x2 = 0.8985	990.1	–	1171.2
[1], 308.15 K, x2 = 0.05335	713.45	–	–
[1], 308.15 K, x2 = 0.1009	720.68	–	–
[1], 308.15 K, x2 = 0.1998	737.48	–	–
[1], 308.15 K, x2 = 0.2963	756.46	–	–
[1], 308.15 K, x2 = 0.3965	779.36	–	–
[1], 308.15 K, x2 = 0.4978	806.49	–	–
[1], 308.15 K, x2 = 0.5983	838.24	–	–
[1], 308.15 K, x2 = 0.6976	875.62	–	–
[1], 308.15 K, x2 = 0.7982	921.26	–	–
[1], 308.15 K, x2 = 0.8985	977.7	–	–
[2], 288.15 K, x2 = 0.05262	–	273.59	–
[2], 288.15 K, x2 = 0.1012	–	267.97	–
[2], 288.15 K, x2 = 0.1514	–	262.27	–
[2], 288.15 K, x2 = 0.2001	–	256.97	–
[2], 288.15 K, x2 = 0.297	–	247.1	–
[2], 288.15 K, x2 = 0.4018	–	237.24	–
[2], 288.15 K, x2 = 0.452	–	232.75	–
[2], 288.15 K, x2 = 0.5014	–	228.4	–
[2], 288.15 K, x2 = 0.5514	–	223.85	–
[2], 288.15 K, x2 = 0.6024	–	218.72	–
[2], 288.15 K, x2 = 0.6477	–	213.45	–
[2], 288.15 K, x2 = 0.6978	–	206.69	–
[2], 288.15 K, x2 = 0.7944	–	191.68	–
[2], 288.15 K, x2 = 0.845	–	183.74	–
[2], 288.15 K, x2 = 0.9016	–	175.65	–
[2], 288.15 K, x2 = 0.9486	–	169.8	–
[2], 298.15 K, x2 = 0.05262	–	277.51	–
[2], 298.15 K, x2 = 0.1012	–	271.68	–
[2], 298.15 K, x2 = 0.1514	–	265.73	–
[2], 298.15 K, x2 = 0.2001	–	260.11	–
[2], 298.15 K, x2 = 0.297	–	249.53	–
[2], 298.15 K, x2 = 0.4018	–	238.51	–
[2], 298.15 K, x2 = 0.452	–	233.42	–
[2], 298.15 K, x2 = 0.5014	–	228.22	–
[2], 298.15 K, x2 = 0.5514	–	222.78	–
[2], 298.15 K, x2 = 0.6024	–	217.1	–
[2], 298.15 K, x2 = 0.6477	–	211.64	–
[2], 298.15 K, x2 = 0.6978	–	205.13	–
[2], 298.15 K, x2 = 0.7944	–	191.78	–
[2], 298.15 K, x2 = 0.845	–	184.48	–
[2], 298.15 K, x2 = 0.9016	–	176.75	–
[2], 298.15 K, x2 = 0.9486	–	170.87	–
[2], 308.15 K, x2 = 0.05262	–	281.91	–
[2], 308.15 K, x2 = 0.1012	–	275.81	–
[2], 308.15 K, x2 = 0.1514	–	269.66	–
[2], 308.15 K, x2 = 0.2001	–	263.87	–
[2], 308.15 K, x2 = 0.297	–	252.77	–
[2], 308.15 K, x2 = 0.4018	–	241.06	–
[2], 308.15 K, x2 = 0.452	–	235.55	–
[2], 308.15 K, x2 = 0.5014	–	230.02	–
[2], 308.15 K, x2 = 0.5514	–	224.27	–
[2], 308.15 K, x2 = 0.6024	–	218.19	–
[2], 308.15 K, x2 = 0.6477	–	212.66	–
[2], 308.15 K, x2 = 0.6978	–	206.01	–
[2], 308.15 K, x2 = 0.7944	–	192.97	–
[2], 308.15 K, x2 = 0.845	–	185.93	–
[2], 308.15 K, x2 = 0.9016	–	178.33	–
[2], 308.15 K, x2 = 0.9486	–	172.4	–
